The record followed here is patent publication US8435978B2, “Substituted sulfonamide compounds” (Gruenenthal GmbH, priority 2006, dated 2013).

Structures are written as SMILES. Where a name gives a salt, the structure may show the parent alone.

The target in one test is T1, B1R receptor of the rat (Rattus norvegicus, UniProt P97583).
T1 construct: host or cells: CHO K1 cells (Chinese hamster ovary), stably transfected
T1 sequence (P97583 1-337): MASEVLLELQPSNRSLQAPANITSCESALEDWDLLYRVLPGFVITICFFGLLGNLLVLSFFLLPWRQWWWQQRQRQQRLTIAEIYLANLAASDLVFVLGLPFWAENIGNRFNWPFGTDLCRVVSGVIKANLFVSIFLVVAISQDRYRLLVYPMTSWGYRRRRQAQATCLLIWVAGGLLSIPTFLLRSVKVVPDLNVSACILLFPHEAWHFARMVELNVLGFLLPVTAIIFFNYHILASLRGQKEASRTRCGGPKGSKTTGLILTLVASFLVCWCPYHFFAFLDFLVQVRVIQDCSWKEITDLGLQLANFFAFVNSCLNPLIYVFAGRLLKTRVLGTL
Description: Functional study on the bradykinin receptor 1 (B1R), FLIPR Ca2+ assay, rB1R cells. The following applies: agonist Des-Arg9-bradykinin 100 nM, % inhibition compared with the maximum achievable inhibition; for inhibition at 10 µM: CHO-K1, test substance 10 μM, read-out: B1R Antagonism, rat [10 μM] % Inhibition; for B1R Antagonism, rat [10 μM] % Inhibition: test substance 10 μM, rB1R CHO K1 cells. Type of test: cell-based. The essentials: (§1)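 FLIPR Ca2+ assay in recombinant CHO K1 cells (human or rat B1R), Fluo-4 dye; 10 μM compound, 10 min, then EC-level agonist per species (0.5 nM Lys-Des-Arg9-BK human / 100 nM Des-Arg9-BK rat). Output: % inhibition vs maximum.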

Another test has as its target T2, human B1R receptor (Homo sapiens, UniProt P46663).
T2 construct: host or cells: CHO K1 cells (Chinese hamster ovary), stably transfected
T2 sequence (P46663 1-353): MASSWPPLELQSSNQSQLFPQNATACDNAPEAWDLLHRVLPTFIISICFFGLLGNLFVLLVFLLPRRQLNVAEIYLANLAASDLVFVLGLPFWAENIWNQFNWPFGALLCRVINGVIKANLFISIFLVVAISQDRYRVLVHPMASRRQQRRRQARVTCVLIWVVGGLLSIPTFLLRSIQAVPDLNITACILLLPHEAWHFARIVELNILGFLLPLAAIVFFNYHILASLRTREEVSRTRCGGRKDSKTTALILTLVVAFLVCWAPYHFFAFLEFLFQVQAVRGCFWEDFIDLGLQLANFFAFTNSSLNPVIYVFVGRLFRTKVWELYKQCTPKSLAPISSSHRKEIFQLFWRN
Description: Functional study on the bradykinin receptor 1 (B1R), FLIPR Ca2+ assay, hB1R cells. Particulars: agonist Lys-Des-Arg9-bradykinin 0.5 nM, % inhibition compared with the maximum achievable inhibition; for inhibition at 10 µM: CHO-K1, test substance 10 μM, read-out: B1R Antagonism, human [10 μM] % Inhibition; for B1R Antagonism, human [10 μM] % Inhibition: test substance 10 μM, hB1R CHO K1 cells. Type of test: cell-based. A digest of the protocol: as §1

On to `O=C(COCC1CCCN1S(=O)(=O)c1c(Cl)cc(Cl)cc1Cl)NCc1ccc(CN2CCCCC2)cc1` (centres unmarked) [Example 10, N-(4-piperidin-1-ylmethyl-benzyl)-2-[1-(2,4,6-trichloro-phenylsulfonyl)-pyrrolidin-2-ylmethoxy]-acetamide], for which the inhibition at 10 µM was determined as 91.8% on B1R receptor of the rat and 100% on human B1R receptor.
The matching figures for `COc1cc(C)c(S(=O)(=O)N2CCCC2COCC(=O)N2CCN(Cc3ccccc3F)CC2)c(C)c1` (centres unmarked) [Example 444, 1-(4-(2-fluorobenzyl)piperazin-1-yl)-2-((1-(4-methoxy-2,6-dimethylphenylsulfonyl)pyrrolidin-2-yl)methoxy)ethanone]: 98.6% and 92.8%.
The corresponding values for `O=C(COCC1Cc2ccccc2CN1S(=O)(=O)c1ccccc1)Nc1cccc(N2CCOCC2)c1` (centres unmarked) [Example 264, N-(3-morpholinophenyl)-2-((2-(phenylsulfonyl)-1,2,3,4-tetrahydroisoquinolin-3-yl)methoxy)acetamide] are 31.7% and 103%.
With `COc1cc(OC)cc(N2CCN(C(=O)COCC3CCCN3S(=O)(=O)c3c(C)cc(OC)cc3C)CC2)c1` (centres unmarked) [Example 503, 1-(4-(3,5-dimethoxyphenyl)piperazin-1-yl)-2-((1-(4-methoxy-2,6-dimethylphenylsulfonyl)pyrrolidin-2-yl)methoxy)ethanone], the inhibition at 10 µM at B1R receptor of the rat was determined as 97.9%; at human B1R receptor, 103%.
The corresponding values for `COc1cc(C)c(S(=O)(=O)N2CCCC2COCC(=O)NCCCN2CCN(Cc3ccccc3)CC2)c(C)c1` (centres unmarked) [Example 521, N-(3-(4-benzylpiperazin-1-yl)propyl)-2-((1-(4-methoxy-2,6-dimethylphenylsulfonyl)pyrrolidin-2-yl)methoxy)acetamide] are 99.3% and 85.2%.
On to `COc1cc(C)c(S(=O)(=O)N2CCCCC2COCC(=O)NCCN2CCN(Cc3ccccc3)CC2)c(C)c1` (centres unmarked) [Example 401, N-(2-(4-benzylpiperazin-1-yl)ethyl)-2-((1-(4-methoxy-2,6-dimethylphenylsulfonyl)piperidin-2-yl)methoxy)acetamide], for which the values for the inhibition at 10 µM on B1R receptor of the rat and at human B1R receptor were 95.6% and 90.8%, respectively.
For the molecule `O=C(COCC1CCCCN1S(=O)(=O)c1cccc2ccccc12)N1CCCN(Cc2ccccc2)CC1` (centres unmarked) [Example 6, 1-(4-benzyl-[1,4]diazepan-1-yl)-2-[1-(naphthyl-1-sulfonyl)-piperidin-2-ylmethoxy]-ethanone], the “B1R Antagonism, rat [10 μM] % Inhibition” value at B1R receptor of the rat was determined as 94.88%. In addition, the “B1R Antagonism, human [10 μM] % Inhibition” value at human B1R receptor is on record as 102.21%.
Take `COc1cc(C)c(S(=O)(=O)N2Cc3ccccc3C[C@H]2COCC(=O)N2CCC(CCN3CCCC3)CC2)c(C)c1` [Example 187, (S)-2-((2-(4-methoxy-2,6-dimethylphenylsulfonyl)-1,2,3,4-tetrahydroisoquinolin-3-yl)methoxy)-1-(4-(2-(pyrrolidin-1-yl)ethyl)piperidin-1-yl)ethanone]: the inhibition at 10 µM on B1R receptor of the rat was 102%; on human B1R receptor, 100%.
The corresponding values for `O=C(COCC1CCCCN1S(=O)(=O)c1c(Cl)cccc1Cl)N1CCC(c2ccncc2)C1` (centres unmarked) [Example 282, 2-((1-(2,6-dichlorophenylsulfonyl)piperidin-2-yl)methoxy)-1-(3-(pyridin-4-yl)pyrrolidin-1-yl)ethanone] are 86% and 103%.
The matching figures for `COc1cc(C)c(S(=O)(=O)N2c3ccccc3CCC2COCC(=O)N2CCN(C3CCN(C)CC3)CC2)c(C)c1` (centres unmarked) [Example 202, 2-((1-(4-methoxy-2,6-dimethylphenylsulfonyl)-1,2,3,4-tetrahydroquinolin-2-yl)methoxy)-1-(4-(1-methylpiperidin-4-yl)piperazin-1-yl)ethanone]: 99.8% and 104%.
The corresponding values for `Cc1ccccc1Oc1cccc(S(=O)(=O)N2CCCCC2COCC(=O)N2CCN(C3CCN(C)CC3)CC2)c1` (centres unmarked) [Example 131, 1-(4-(1-methylpiperidin-4-yl)piperazin-1-yl)-2-((1-(3-(o-tolyloxy)phenylsulfonyl)piperidin-2-yl)methoxy)ethanone] are 95.4% and 82.1%.
Consider `CN1CCC(N2CCN(C(=O)COCC3CCCCN3S(=O)(=O)c3cccc4c(N(C)C)cccc34)CC2)CC1` (centres unmarked) [Example 158, 2-((1-(5-(dimethylamino)naphthalen-1-ylsulfonyl)piperidin-2-yl)methoxy)-1-(4-(1-methylpiperidin-4-yl)piperazin-1-yl)ethanone dihydrochloride], for which the inhibition at 10 µM at B1R receptor of the rat came to 99.3%; on human B1R receptor it was 98.5%.
The corresponding values for `COc1cc(C)c(S(=O)(=O)N2CCCC2COCC(=O)N2CCN(c3ccc(F)cc3)CC2)c(C)c1` (centres unmarked) [Example 307, 1-(4-(4-fluorophenyl)piperazin-1-yl)-2-((1-(4-methoxy-2,6-dimethylphenylsulfonyl)pyrrolidin-2-yl)methoxy)ethanone] are 98.4% and 105%.
The matching figures for `O=C(COCC1CCCCN1S(=O)(=O)c1c(Cl)cccc1Cl)NCC1CCCN(Cc2ccccc2)C1` (centres unmarked) [Example 314, N-((1-benzylpiperidin-3-yl)methyl)-2-((1-(2,6-dichlorophenylsulfonyl)piperidin-2-yl)methoxy)acetamide]: 104% and 105%.
The matching figures for `COc1ccc(S(=O)(=O)N2Cc3ccccc3C[C@H]2COCC(=O)N2CCC(CCN3CCCC3)CC2)cc1` [Example 182, (S)-2-((2-(4-methoxyphenylsulfonyl)-1,2,3,4-tetrahydroisoquinolin-3-yl)methoxy)-1-(4-(2-(pyrrolidin-1-yl)ethyl)piperidin-1-yl)ethanone]: 99.7% and 91.1%.
As to `O=C(COCC1CCCCN1S(=O)(=O)c1cccc2ccccc12)NCc1ccc(CN2CCOCC2)cc1` (centres unmarked) [Example 61, N-(4-morpholin-4-ylmethyl-benzyl)-2-[1-(naphthyl-1-sulfonyl)-piperidin-2-ylmethoxy]-acetamide], the “B1R Antagonism, rat [10 μM] % Inhibition” value at B1R receptor of the rat is reported as 30.54%. Further, the “B1R Antagonism, human [10 μM] % Inhibition” value on human B1R receptor was 59.7%.
As for `O=C(COCC1CCCCN1S(=O)(=O)c1c(Cl)cccc1Cl)N1CCN(c2ccccn2)CC1` (centres unmarked) [Example 316, 2-((1-(2,6-dichlorophenylsulfonyl)piperidin-2-yl)methoxy)-1-(4-(pyridin-2-yl)piperazin-1-yl)ethanone], the inhibition at 10 µM worked out at 98.2% on B1R receptor of the rat and 82.7% at human B1R receptor.
Take `O=C(COCC1CCCCN1S(=O)(=O)c1c(Cl)cccc1Cl)N1CCN(Cc2ccccc2F)CC1` (centres unmarked) [Example 454, 2-((1-(2,6-dichlorophenylsulfonyl)piperidin-2-yl)methoxy)-1-(4-(2-fluorobenzyl)piperazin-1-yl)ethanone]: the inhibition at 10 µM on B1R receptor of the rat was 100%; on human B1R receptor, 102%.
As for `COc1cc(C)c(S(=O)(=O)N2CCCCC2COCC(=O)N2CCC(N3CCn4ccnc4C3)CC2)c(C)c1` (centres unmarked) [Example 144, 1-(4-(5,6-dihydroimidazo[1,2-a]pyrazin-7(8H)-yl)piperidin-1-yl)-2-((1-(4-methoxy-2,6-dimethylphenylsulfonyl)piperidin-2-yl)methoxy)ethanone], the inhibition at 10 µM at B1R receptor of the rat came to 98.2%; on human B1R receptor, 101%.
